Patent publication US20030003088A1, “Human pancreatic pluripotential stem cell line” (Board of Trustees operating Michigan State University, priority 2001, published 2003)
“Also recorded” adds a separate entry of the source.

Assays:
HPDE6c7 cells [1] = experiment: Assay (A): inhibition of forskolin-induced GJIC, Lucifer yellow dye transfer, PAH given at every medium change; assay type: cell-based, human; conditions: for GJIC, Average (% change over control at −30 min), −30 min / GJIC, Average (% change over control at −30 min), 0 hr / GJIC, Average (% change over control at −30 min), 24 hr / GJIC, Average (% change over control at −30 min), 48 hr / GJIC, Average (% change over control at −30 min), 72 hr: 70 μM PAH given at every medium change; for GJIC, Average (% change over control at −30 min), −30 min: at time of addition; for GJIC, Average (% change over control at −30 min), 0 hr / GJIC, Average (% change over control at −30 min), 24 hr / GJIC, Average (% change over control at −30 min), 48 hr / GJIC, Average (% change over control at −30 min), 72 hr: forskolin 5 μM; for inhibition of GJIC induced by forskolin: 70 μM, PAH at every medium change
HPDE6c7 cells [2] = experiment: Assay (B): inhibition of forskolin-induced GJIC, Lucifer yellow dye transfer, PAH given only at time −30 min; conditions: for GJIC, Average (% change over control at −30 min), −30 min / GJIC, Average (% change over control at −30 min), 0 hr / GJIC, Average (% change over control at −30 min), 24 hr / GJIC, Average (% change over control at −30 min), 48 hr / GJIC, Average (% change over control at −30 min), 72 hr: 70 μM PAH given at time −30 min only; for GJIC, Average (% change over control at −30 min), −30 min: at time of addition; for GJIC, Average (% change over control at −30 min), 0 hr / GJIC, Average (% change over control at −30 min), 24 hr / GJIC, Average (% change over control at −30 min), 48 hr / GJIC, Average (% change over control at −30 min), 72 hr: forskolin 5 μM
HPDE6c7 cells [3] = experiment: GJIC competence under c-AMP elevating agents, Lucifer yellow dye transfer; assay type: cell-based, human; conditions: in KBM, 48 hours
Method: The ability of the HPDE6c7 cells to communicate via gap junctions under various growth conditions was measured using the lucifer yellow dye transfer method as developed by El-Fouly et al. (Exp. Cell Res. 168: 422-430 (1987)). Briefly, near confluent cultures of the cells grown as in Example 1 were subjected to the desired treatment, either growth in KBM or KBM containing c-AMP elevating agents such as forskolin or forskolin and 3-isobutyl-1-methylxanthine (IBMX), both from Sigma Chemical Co., St. Louis, Mo. Then, lucifer yellow was loaded into the cells by making two or three scrape lines in the monolayer with a sharp scalpel. […] Quantifying the extent of communication was done using an image analysis program.

[4] = tested on: insulin promoter in HPDE6c7 cells; experiment: Insulin promoter activity, AdINSGFP (GFP under insulin promoter) infected cells; assay type: cell-based, human
Method: To determine whether the insulin promoter in the HPDE6c7 cells is active, the cells were infected with adenovirus AdINSGFP, a virus vector that expresses the Green Fluorescence Protein (GFP) under the regulation of the insulin promoter.
Nicotinamide is known to affect cell differentiation. Therefore, the effect of nicotinamide on the activity of the insulin promoter in HPDE6c7 cells was determined. The […] cells were plated on plastic cell culture dishes for two days. Then the cells were infected with about 50 pfu/cell AdINSGFP for one hour. Afterwards, the cells were washed and incubated for three days in KBM containing 10 mM nicotinamide.

HPDE6c7 cells [5] = experiment: Induction of insulin production / release into the media; assay type: cell-based, human; conditions: for synthesis and release of insulin / appearance of insulin in the media: preliminary data
HPDE6c7 cells [6] = experiment: Growth of cells in culture with growth factors; assay type: cell-based, human

Cc1cccc2cc3ccccc3cc12 [1-MeA, 1-methylanthracine]
GJIC, Average (% change over control at −30 min), −30 min (HPDE6c7 cells [1]): 100.00%
GJIC, Average (% change over control at −30 min), 0 hr (HPDE6c7 cells [1]): 89.37%
GJIC, Average (% change over control at −30 min), 24 hr (HPDE6c7 cells [1]): 92.24%
GJIC, Average (% change over control at −30 min), 48 hr (HPDE6c7 cells [1]): 81.77%
GJIC, Average (% change over control at −30 min), 72 hr (HPDE6c7 cells [1]): 212.39%
inhibition of GJIC induced by forskolin (HPDE6c7 cells [1]): inhibited GJIC that had been induced by forskolin
GJIC, Average (% change over control at −30 min), −30 min (HPDE6c7 cells [2]): 100.00%
GJIC, Average (% change over control at −30 min), 0 hr (HPDE6c7 cells [2]): 77.04%
GJIC, Average (% change over control at −30 min), 24 hr (HPDE6c7 cells [2]): 233.32%
GJIC, Average (% change over control at −30 min), 48 hr (HPDE6c7 cells [2]): 246.93%
GJIC, Average (% change over control at −30 min), 72 hr (HPDE6c7 cells [2]): 261.32%
lethal effects on the cells / cytotoxicity (HPDE6c7 cells [2]; 70 μM, PAH at −30 min only): no lethal effects; also recorded: not cytotoxic
reversibility of the inhibition of GJIC (HPDE6c7 cells [2]; 70 μM, PAH at −30 min only): reversible

Cc1ccc2cc3ccccc3cc2c1 [2-MeA, 2-methylanthracine]
GJIC, Average (% change over control at −30 min), −30 min (HPDE6c7 cells [1]): 100.00%
GJIC, Average (% change over control at −30 min), 0 hr (HPDE6c7 cells [1]): 102.06%
GJIC, Average (% change over control at −30 min), 24 hr (HPDE6c7 cells [1]): 197.60%
GJIC, Average (% change over control at −30 min), 48 hr (HPDE6c7 cells [1]): 227.15%
GJIC, Average (% change over control at −30 min), 72 hr (HPDE6c7 cells [1]): 271.19%
inhibition of GJIC induced by forskolin (HPDE6c7 cells [1]): did not
GJIC, Average (% change over control at −30 min), −30 min (HPDE6c7 cells [2]): 100.00%
GJIC, Average (% change over control at −30 min), 0 hr (HPDE6c7 cells [2]): 89.95%
GJIC, Average (% change over control at −30 min), 24 hr (HPDE6c7 cells [2]): 265.70%
GJIC, Average (% change over control at −30 min), 48 hr (HPDE6c7 cells [2]): 260.89%
GJIC, Average (% change over control at −30 min), 72 hr (HPDE6c7 cells [2]): 260.89%

C=C[C@@]1(C)CC(=O)[C@]2(O)[C@@]3(C)[C@@H](O)CCC(C)(C)[C@@H]3[C@H](O)[C@H](OC(C)=O)[C@@]2(C)O1 [forskolin]
increase in GJIC relative to complete keratinocyte serum-free medium (KSFM) (HPDE6c7 cells [3]): 2.2 fold

NC(=O)c1cccnc1 [nicotinamide]
activation of the insulin promoter (GFP expressing cells) ([4]; 10 mM in KBM, three days): induces a substantial number of cells to activate the insulin promoter
induction of insulin production (HPDE6c7 cells [5]): induce the HPDE6c7 cells to produce insulin
synthesis and release of insulin / appearance of insulin in the media (HPDE6c7 cells [5]): appear to synthesize and release insulin

cholera toxin
induction of insulin production (HPDE6c7 cells [5]): induce the HPDE6c7 cells to produce insulin

hepatocyte growth factor: growth factor (mitogen)
synthesis and release of insulin / appearance of insulin in the media (HPDE6c7 cells [5]): appear to synthesize and release insulin
growth of the cells (HPDE6c7 cells [6]): an increase in growth of the cells

sonic hedgehog
turning on the promoter for the insulin gene [4]: can turn on the promoter for the insulin gene
induction of insulin production (HPDE6c7 cells [5]): induce the HPDE6c7 cells to produce insulin

B1: beta-cellulin: growth factor (mitogen) (protein, UniProt P35070 32-111, looked up)
Betacellulin: DGNSTRSPETNGLLCGDPEENCAATTTQSKRKGHFSRCPKQYKHYCIKGRCRFVVAEQTPSCVCDEGYIGARCERVDLFY
growth of the cells (HPDE6c7 cells [6]): an increase in growth of the cells
